Each structure is given as a SMILES string.

Here are results for five compounds from patent US8173378B2, “Methods of using an alpha-1-adrenergic receptor having altered ligand affinity” (Pharmacome LLC, priority 2007, dated 2012).

Experiment [1] addresses T1, α1L-adrenergic receptor (α1A-adrenergic receptor / CRELD1α complex) in α1L cells (Homo sapiens, UniProt P35348).
T1 construct: the coding region of the ADRA1A gene was subcloned into the EcoRI restriction enzyme site of the multicloning site A of the pIRES; expressed in transfected cells
T1 sequence (P35348 1-466): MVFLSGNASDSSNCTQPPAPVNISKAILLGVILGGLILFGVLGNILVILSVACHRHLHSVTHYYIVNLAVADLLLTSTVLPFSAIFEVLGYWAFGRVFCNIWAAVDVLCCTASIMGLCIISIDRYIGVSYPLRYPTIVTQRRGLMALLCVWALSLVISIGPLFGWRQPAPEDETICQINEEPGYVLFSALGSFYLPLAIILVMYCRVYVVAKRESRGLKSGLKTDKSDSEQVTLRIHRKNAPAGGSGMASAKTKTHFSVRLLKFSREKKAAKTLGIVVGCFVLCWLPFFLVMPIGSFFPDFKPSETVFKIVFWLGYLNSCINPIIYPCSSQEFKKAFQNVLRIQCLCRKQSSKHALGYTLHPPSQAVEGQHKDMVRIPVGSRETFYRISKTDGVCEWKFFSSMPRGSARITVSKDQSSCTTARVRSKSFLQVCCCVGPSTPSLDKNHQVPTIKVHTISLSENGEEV
T1 sequence (Q96HD1 30-420 partner): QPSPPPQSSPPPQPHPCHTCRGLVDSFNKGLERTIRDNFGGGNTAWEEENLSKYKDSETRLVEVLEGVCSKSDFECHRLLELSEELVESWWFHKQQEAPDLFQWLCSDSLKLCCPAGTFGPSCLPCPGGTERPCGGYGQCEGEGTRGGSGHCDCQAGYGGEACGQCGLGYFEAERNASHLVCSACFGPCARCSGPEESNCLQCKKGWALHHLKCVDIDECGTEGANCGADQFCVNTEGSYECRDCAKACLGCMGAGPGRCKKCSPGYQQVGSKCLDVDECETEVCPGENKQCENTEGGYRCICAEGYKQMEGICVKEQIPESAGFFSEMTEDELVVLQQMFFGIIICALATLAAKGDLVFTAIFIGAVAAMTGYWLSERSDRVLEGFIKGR
Nature of the experiment: Whole-cell [3H]-silodosin binding in α1L cells (CHO-K1 coexpressing ADRA1A and CRELD1α). As to conditions: for sensitivity of receptors in α1L cells (in words): whole-cell competition binding. On the procedure: (§1) The vector was amplified/purified in a conventional method, and then transfected into CHO-K1 cells, which are cells of Chinese Hamster ovarian origin, with Lipofectamine 2000 (Invitrogen Corporation) according to the manufacturer's protocol. Two days after the transfection, 1200 μg/ml of the antibiotic Geneticin (G418) were added to the DMEM culture medium. […] The G418-resistant cells were diluted, suspended, and injected dividedly into a 96-well plate so that an average of 0.5 cells was put in per well, and a single colony was chosen. This operation was repeated three times, whereby a stable clone (au cells) having coexpressed the ADRA1A gene and the CREDL1α gene was produced. Further, as control groups, the cells (α1A cells) having stably expressed only the ADRA1A gene and the cells (CREDL1α cells) having stably expressed only the CREDL1α gene were produced.
The stable clone was studied by a pharmacological binding method with [^3H]-silodosin, which is a radioligand. An experiment was conducted using a whole-cell binding method. That is, cells were scattered two to three days before the experiment so that they are semi-confluent, washed twice with ice-cold PBS, and then scraped by a scraper. The cells thus collected were suspended again in a Krebs-HEPES solution, and then incubated at 4° C. for four hours together with [^3H]-silodosin and another drug as needed. Thereafter, the cells were filtered/washed by a Whatmann GC/F filter pretreated with polyethylene imine, and the radioactivity was measured by a liquid scintillation counter. The non-specific binding was evaluated as binding in the presence of 30 μM phenotolamine.
The binding of [^3H]-silodosin of various concentrations (30 to 1000 pM) to the α1L cells was examined (FIG. 1).
Silodosin is known to bind selectively to the α1A- and α1L-subtypes with a high affinity. […] The α1A cells were used as control cell line. [^3H]-silodosin is known as a selective antagonist of α1A- and α1L-subtypes both.

In a further experiment the target is T2, α1B-adrenergic receptor (Homo sapiens, UniProt P35368).
T2 sequence (P35368 1-520): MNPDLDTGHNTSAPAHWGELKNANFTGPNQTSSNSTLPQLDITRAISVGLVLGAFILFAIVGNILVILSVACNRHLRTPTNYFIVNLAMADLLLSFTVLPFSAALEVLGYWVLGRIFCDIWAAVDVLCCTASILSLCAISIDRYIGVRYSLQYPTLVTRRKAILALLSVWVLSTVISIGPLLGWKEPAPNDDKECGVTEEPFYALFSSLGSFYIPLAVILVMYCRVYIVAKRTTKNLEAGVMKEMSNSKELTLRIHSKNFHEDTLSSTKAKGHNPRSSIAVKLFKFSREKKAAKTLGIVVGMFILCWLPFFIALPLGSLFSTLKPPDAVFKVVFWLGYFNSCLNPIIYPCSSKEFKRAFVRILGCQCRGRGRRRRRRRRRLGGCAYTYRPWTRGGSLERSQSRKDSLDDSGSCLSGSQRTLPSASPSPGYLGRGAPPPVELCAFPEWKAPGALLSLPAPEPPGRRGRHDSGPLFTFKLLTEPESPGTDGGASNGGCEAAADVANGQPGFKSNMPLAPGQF
As to conditions: α1B subtype; cited from earlier work.

The target of a further experiment is T3, α1D-adrenergic receptor (Homo sapiens, UniProt P25100).
T3 sequence (P25100 1-572): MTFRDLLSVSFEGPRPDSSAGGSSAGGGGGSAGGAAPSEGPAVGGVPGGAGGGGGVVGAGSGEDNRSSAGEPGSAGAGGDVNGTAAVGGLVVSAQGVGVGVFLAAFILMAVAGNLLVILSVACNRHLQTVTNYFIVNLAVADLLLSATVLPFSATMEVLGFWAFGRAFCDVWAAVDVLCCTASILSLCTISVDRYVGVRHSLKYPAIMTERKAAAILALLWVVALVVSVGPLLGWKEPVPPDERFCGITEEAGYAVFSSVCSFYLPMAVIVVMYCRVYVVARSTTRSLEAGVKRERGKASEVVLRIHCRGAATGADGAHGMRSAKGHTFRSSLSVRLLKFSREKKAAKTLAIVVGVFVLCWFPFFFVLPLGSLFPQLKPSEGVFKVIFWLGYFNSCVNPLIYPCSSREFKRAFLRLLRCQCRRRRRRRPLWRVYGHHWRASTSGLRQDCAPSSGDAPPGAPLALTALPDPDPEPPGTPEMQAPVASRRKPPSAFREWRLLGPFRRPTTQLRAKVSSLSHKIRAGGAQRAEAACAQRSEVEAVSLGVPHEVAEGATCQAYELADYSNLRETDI
Particulars: α1D subtype; cited from earlier work.

For another experiment, the target named is T4, α1A-adrenergic receptor (Homo sapiens, UniProt P35348).
T4 sequence (P35348 1-466): T1 sequence (P35348 1-466)
Particulars: α1A subtype; cited from earlier work.

The target of another experiment is α1L-adrenergic receptor. As to conditions: α1L subtype; cited from earlier work.
The target of experiment [2] is T5, α1A-adrenergic receptor in α1A cells (Homo sapiens, UniProt P35348).
T5 construct: the coding region of the ADRA1A gene was subcloned into the EcoRI restriction enzyme site of the multicloning site A of the pIRES; expressed in transfected cells
T5 sequence (P35348 1-466): T1 sequence (P35348 1-466)
Nature of the experiment: Whole-cell [3H]-silodosin binding in α1A cells (CHO-K1 expressing only ADRA1A). On the procedure:
as §1
The stable clone was studied by a pharmacological binding method with [^3H]-silodosin, which is a radioligand. An experiment was conducted using a whole-cell binding method. […] Thereafter, the cells were filtered/washed by a Whatmann GC/F filter pretreated with polyethylene imine, and the radioactivity was measured by a liquid scintillation counter. The non-specific binding was evaluated as binding in the presence of 30 μM phenotolamine. […]

Experiment [3] concerns the target T6, α1L-adrenergic receptors in human prostate tissue segments (Homo sapiens, UniProt P35348).
T6 construct: from tissue; host or cells: human prostate tissue segments
T6 sequence (P35348 1-466): T1 sequence (P35348 1-466)
Nature of the experiment: [3H]-silodosin binding in human prostate tissue segments.

Turning to `CCOc1ccccc1OCCN[C@H](C)Cc1ccc(OC)c(S(N)(=O)=O)c1` [tamsulosin], the “sensitivity of receptors in α1L cells (in words)” value (“sensitivity of receptors” for short) in experiment [1] (α1L cells) was “high sensitivity”. The “Affinity (pKb)” value is given as 9.3 on α1B-adrenergic receptor and 9.9 at α1D-adrenergic receptor.

In the case of `C[C@H](Cc1cc2c(c(C(N)=O)c1)N(CCCO)CC2)NCCOc1ccccc1OCC(F)(F)F` [silodosin], the “Affinity (pKb)” value is given as 10.7-9.5 at α1A-adrenergic receptor, 10.7-9.5 on α1L-adrenergic receptor, 8.1 at α1B-adrenergic receptor and 8.6 on α1D-adrenergic receptor.

For `C[C@H](Cc1cc2c(c(C(N)=O)c1)N(CCCO)CC2)NCCOc1ccccc1OCC(F)(F)F` [[^3H]-silodosin], the “maximum binding amount (Bmax)” value in experiment [1] (α1L cells, saturation binding, 30 to 1000 pM) is 134 fmol/mg protein. Besides, the Kd is 0.843 nM in experiment [1] (α1L cells, saturation binding, whole-cell method); 0.2 nM in experiment [2] (α1A cells, whole-cell method, read-out: pKD (dissociation equilibrium constant from saturation binding curve) (converted)); 0.316 nM in experiment [3] (human prostate tissue segments, read-out: pKD (dissociation equilibrium constant from saturation binding curve) (converted)).

Turning to `COc1ccccc1N1CCN(CCN2C(=O)CC3(CCCC3)CC2=O)CC1.Cl.Cl` [BMY 7378, 8-[2-[4-(2-methoxyphenyl)-1-piperazinyl]ethyl]8-azaspiro[4,5]decane7,9-dione dihydrochloride], in experiment [1] (α1L cells), the “sensitivity of receptors” value is “only low sensitivity”. For the same compound, the “Affinity (pKb)” value at α1B-adrenergic receptor is listed as 7.4.

`CC(C)(Cc1c[nH]c2ccc(Cl)cc12)NCCOc1ccccc1OCC1CC1.Cl` [RS-17053, N-[2-(2-cyclopropylmethoxyphenoxy)ethyl]-5-chloro-α,α-dimethyl-1H-indole-3-ethanamine hydrochloride]: the inhibitory constant (Ki) in experiment [1] is > 1000 nM; in experiment [2], 1.58 nM; in experiment [3] it was 251 nM. Further, the “sensitivity of receptors” value in experiment [1] (α1L cells) was “low in sensitivity”. Besides, the “Affinity (pKb)” value on α1A-adrenergic receptor is 9.1-8.4; at α1L-adrenergic receptor, 6.3; at α1B-adrenergic receptor it was 7.8; at α1D-adrenergic receptor, 7.8.
